≈ marks a conversion by molar mass, not a printed value. Where “and” joins values, the source holds several entries; their conditions need not be identical. Identical values can stand only once. Like-named read-outs stand apart in the source and are kept apart here.
Assays:
[1] = test system: Interleukin-6 (IL-6); experiment: Cytokine assay, stimulation of peripheral blood mononuclear cells, ELISA; assay type: cell-based, human
Procedure: (§1) Isolation of peripheral blood mononuclear cells (PBMCs) from 5 healthy individuals was performed as described elsewhere (108). Briefly, venous blood was drawn into 10 ml tubes containing 0.2 mg of EDTA (Monoject's-Hertogenbosch, NL). The PBMC fraction was obtained by density centrifugation of blood using Ficoll-Paque (Pharmacia Biotech AB, Sweden). […] The PBMCs were incubated in 96-well tissue culture plates (Greiner, Alphen, NL) at a concentration of 5×10^5 cells per well in a total volume of 200 μl, in the presence or absence of a set of stimuli in different experiments. […] After 24 h of incubation, the supernatants were collected and stored at -80° C. until analysis. Interleukin-6 (IL-6) and tumor necrosis factor (TNF) were measured by ELISA according to the manufacturer's protocol ([…], CLB, Amsterdam, NL). […] Agilent Technologies) with a linear AB gradient (0.2% acetonitrile/min) at a flow rate of 2 ml/min, where mobile phase A was 0.1% aqueous TFA in water and B was 0.1% TFA in acetonitrile. The purity of peptides was verified by analytical RP-HPLC. The peptides were further characterized by electrospray mass spectrometry and amino acid analysis.

[2] = test system: tumor necrosis factor (TNF); experiment: as above; assay type: cell-based, human
Procedure: as §1

[3] = test system: Gram-positive bacteria
[4] = test system: Absidia corymbifera (clinical isolate); settings: mean of 2 sets
[5] = test system: Mycobacterium tuberculosis strain H37Rv
[6] = Helical structure by circular dichroism spectroscopy; assay type: physicochemical; settings: 222 nm
Procedure: The mean residue molar ellipticities of peptides were determined by circular dichroism (CD) spectroscopy, using a Jasco J-810 spectropolarimeter (Easton, Md.) at 5° C. under benign (non-denaturing) conditions (50 mM NaH2PO4/Na2HPO4/100 mM KCl, pH 7.0), hereafter referred to as benign buffer, as well as in the presence of an α-helix inducing solvent, 2,2,2-trifluoroethanol, TFE, (50 mM NaH2PO4/Na2HPO4/[…], pH 7.0 buffer/50% TFE). A 10-fold dilution of an approximately […] stock solution of the peptide analogs was loaded into a 0.1 cm quartz cell and its ellipticity scanned from 195 to 250 nm. The values of molar ellipticities of the peptide analogs at a wavelength of 222 nm were used to estimate the relative α-helicity of the peptides.

[7] = test system: Rhizomucor spp. (clinical isolate)
[8] = test system: Zygomycota fungi
[9] = test system: human red blood cells; experiment: Hemolytic activity (MHC50/HC50), 18 h microtiter dilution; assay type: cell-based; settings: for Hemolytic activity Fold (fold improvement in HC50 compared to that of D4): relative to D4
Procedure: Hemoglobin release was determined spectrophotometrically at 570 nm. […] MHC50 was determined by plot the concentration-lysis format.

[10] = test system: Rhizopus oryzae (AZN 8892)
[11] = test system: Ascomycota fungi
[12] = test system: Rhizopus microsporus (clinical isolate)
[13] = test system: Gram-negative bacteria; experiment: Antibacterial activity (MIC), microtiter dilution; assay type: cell-based
Procedure: MICs were determined by a standard microtiter dilution method in Mueller Hinton Broth (MHB). Serial dilutions of the 10× compound were added to the microtiter plates in a volume of 10 μL followed by 90 μL of bacteria for an inoculum of 5×10^5 colony-forming units (CFU)/mL. The plates were incubated at 37° C. for 24 h, and the MICs were determined as the lowest peptide concentration that inhibited growth. […]
Alternatively; minimal inhibitory concentrations were determined using a standard microtiter dilution method in a Mueller-Hinton (MH) medium. Briefly, cells were grown overnight at 37° C. in MH broth and diluted in the same medium. Serial dilutions of the peptides were added to the microtiter plates in a volume of 100 μl followed by 10 μl of bacteria for an initial cell concentration of 1×10^5 CFU/ml. Plates were incubated at 37° C. for 24 hours and MICs determined as the lowest peptide concentration that inhibited growth.

[14] = peptide concentration 0.01 μg/ml
[15] = peptide concentration 100 μg/ml

CC[C@@H](C)[C@@H](NC(=O)[C@@H](C)NC(=O)[C@@H](CCCCN)NC(=O)[C@@H](CC(C)C)NC(=O)[C@@H](C)NC(=O)[C@H](NC(=O)[C@@H](Cc1c[nH]cn1)NC(=O)[C@@H](CC(C)C)NC(=O)[C@H](NC(=O)[C@H](NC(=O)[C@@H](CCCCN)NC(=O)[C@@H](CCCCN)NC(=O)[C@@H](C)NC(=O)[C@@H](CO)NC(=O)[C@@H](CCCCN)NC(=O)[C@@H](Cc1ccccc1)NC(=O)[C@H](NC(=O)[C@@H](CCCCN)NC(=O)[C@@H](CC(C)C)NC(=O)[C@@H](Cc1ccccc1)NC(=O)[C@@H](CO)NC(=O)[C@@H](CCCCN)NC(=O)[C@@H](Cc1c[nH]c2ccccc12)NC(=O)[C@@H](CCCCN)NC(C)=O)[C@H](C)O)[C@H](C)O)C(C)C)[C@H](C)O)C(=O)N[C@H](CO)C(=O)N[C@H](CO)C(N)=O [D1]
IL-6 Exp 1 [1, 14]: <3 pg/mL
IL-6 Exp 2 ([1]; peptide concentration 0.01 μg/ml, Exp 2): <3 pg/mL
IL-6 Exp 1 [1, 15]: <3 pg/mL
TNF Exp 1 [2, 14]: <0.015 ng/mL
TNF Exp 2 [2, 14]: <0.015 ng/mL
TNF Exp 1 ([2]; peptide concentration 1 μg/ml): <0.015 ng/mL
TNF Exp 2 ([2]; peptide concentration 1 μg/ml): <0.015 ng/mL
TNF Exp 1 [2, 15]: <0.015 ng/mL
TNF Exp 2 [2, 15]: <0.015 ng/mL
MIC B. subtilus C626 ([3]; B. subtilus C626, MH medium, 37° C., 24 h): 32 mg/L (≈ 10.7 µM)
MIC B. subtilus C971 ATCC6633 ([3]; B. subtilus C971 ATCC6633, MH medium, 37° C., 24 h): 2 mg/L (≈ 0.669 µM)
MIC E. jaecalis C625 ([3]; E. jaecalis C625, MH medium, 37° C., 24 h): 32 mg/L (≈ 10.7 µM)
MIC S. aureus C622 ATCC3923 ([3]; S. aureus C622 ATCC3923, MH medium, 37° C., 24 h): 64 mg/L (≈ 21.4 µM)
MIC S. aureus K147 ([3]; S. aureus K147, MH medium, 37° C., 24 h): 64 mg/L (≈ 21.4 µM)
MIC S. epidermidis C623 ([3]; S. epidermidis C623, MH medium, 37° C., 24 h): 4 mg/L (≈ 1.34 µM)
Fold improvement in antimicrobial activity (geometric mean data) compared to that of D4, Gram-positive bacteria ([3]; relative to D4): 0.9 fold
MIC GM (geometric mean of the MIC values), Gram-positive bacteria ([3]; six Gram-positive strains): 18.0 mg/L
A. corymbifera MIC50 ([4]; peptide concentration that inhibits 50% of fungal growth): 12.5 mg/L
A. corymbifera MIC90 ([4]; peptide concentration that inhibits 90% of fungal growth): 12.5 mg/L
Anti-tuberculosis activity MIC [5]: 70.7 ± 14.8 mg/L
Anti-tuberculosis activity to H37Rv strain Fold (compared to D4) [5]: 2.3 fold
Anti-tuberculosis activity MIC ([5]; H37Rv): 23.6 ± 5.0 µM
Anti-tuberculosis activity to H37Rv strain MIC ([5]; H37Rv): 23.6 µM
Anti-tuberculosis activity to H37Rv strain MIC ([5]; further experiments, […]): 70.7 mg/L
50% TFE [θ]222 (mean residue molar ellipticity) ([6]; benign buffer containing 50% trifluoroethanol): 34,100 deg cm^2/dmol
Benign [θ]222 (mean residue molar ellipticity) ([6]; benign conditions (100 mM KCl, 50 mM NaH2PO4/Na2HPO4, pH 7.0)): 1,150 deg cm^2/dmol
Rhizomucor spp. MIC50 ([7]; inhibits 50% of fungal growth): 4.7 mg/L
Rhizomucor spp. MIC90 ([7]; inhibits 90% of fungal growth): 6.3 mg/L
GM (geometric mean of the MIC50 values), Zygomycota fungi ([8]; four Zygomycota strains): 9.1 mg/L
Fold improvement in antifungal activity (geometric mean data) compared to that of D4, Zygomycota fungi ([8]; relative to D4): 5.5 fold
Hemolytic activity HC50 ([9]; further experiments, 50% hemolysis of human red blood cells after 18 h): 421.5 µg/mL
Hemolytic activity Fold (fold improvement in HC50 compared to that of D4) ([9]; further experiments): 120 fold
Hemolytic activity HC50 ([9]; peptide concentration that produces 50% hemolysis of human red blood cells after 18 h, standard microtiter dilution method): 1000 µg/mL and 1000.0 µg/mL
Hemolytic activity Fold (fold improvement in HC50 compared to that of D4) [9]: 286 fold
R. oryzae MIC50 ([10]; inhibits 50% of fungal growth): 18.8 mg/L
R. oryzae MIC90 ([10]; inhibits 90% of fungal growth): 25.0 mg/L
fold less active than D4 ([11]; Ascomycota fungi): 5 fold
Fold improvement in antifungal activity (geometric mean data) compared to that of D4, Ascomycota fungi ([11]; relative to D4): 0.2 fold
GM (geometric mean of the MIC50 values), Ascomycota fungi ([11]; three Ascomycota strains): 28.6 mg/L
R. micosporus MIC50 ([12]; inhibits 50% of fungal growth): 6.3 mg/L
R. micosporus MIC90 ([12]; inhibits 90% of fungal growth): 12.5 mg/L
MIC E. coli C498 UB1005 ([13]; E. coli C498 UB1005, MH medium, 37° C., 24 h): 2 mg/L (≈ 0.669 µM)
MIC E. coli C857 DH5a ([13]; E. coli C857 DH5a, MH medium, 37° C., 24 h): 2 mg/L (≈ 0.669 µM)
MIC E. coli UB1005 ([13]; E. coli UB1005, MH medium, 37° C., 24 h): 4 mg/L (≈ 1.34 µM)
MIC P. aeruginosa PAO1 ([13]; P. aeruginosa PAO1, Mueller-Hinton medium, 37° C., 24 h, four sets of determinations): 8 mg/L (≈ 2.68 µM)
MIC S. ryphimurium 14208S ([13]; S. ryphimurium 14208S, MH medium, 37° C., 24 h): 32 mg/L (≈ 10.7 µM)
MIC S. ryphimurium C587 14208S ([13]; S. ryphimurium C587 14208S, MH medium, 37° C., 24 h): 4 mg/L (≈ 1.34 µM)
Fold improvement in antimicrobial activity (geometric mean data) compared to that of D4, Gram-negative bacteria ([13]; relative to D4): 4.5 fold
MIC GM (geometric mean of the MIC values), Gram-negative bacteria ([13]; six Gram-negative strains, 128 μg/mL used where no activity at 64 μg/mL): 5.0 mg/L

— US20100099614A1, “Antimicrobial Peptides and Methods of Use” (priority 2008, published 2010)
